Test results taken from paper PMC3179684 (Toxicological Sciences, 2011).
Entries after “also recorded” stand apart in the source; their conditions may differ. Read-outs that look alike come from different tables or passages of the source.

What was measured:
epoxide hydrolase (EH) [1] = biological target: T1, epoxide hydrolase (EH) (Mus musculus, UniProt Q9D379); assay: EO elimination in mouse liver microsomes; type: in vitro ADME, B6C3F1 mice; conditions: native pooled mouse liver microsomes vs heat-inactivated, 5 mg protein/ml
T1 sequence (Q9D379 1-455): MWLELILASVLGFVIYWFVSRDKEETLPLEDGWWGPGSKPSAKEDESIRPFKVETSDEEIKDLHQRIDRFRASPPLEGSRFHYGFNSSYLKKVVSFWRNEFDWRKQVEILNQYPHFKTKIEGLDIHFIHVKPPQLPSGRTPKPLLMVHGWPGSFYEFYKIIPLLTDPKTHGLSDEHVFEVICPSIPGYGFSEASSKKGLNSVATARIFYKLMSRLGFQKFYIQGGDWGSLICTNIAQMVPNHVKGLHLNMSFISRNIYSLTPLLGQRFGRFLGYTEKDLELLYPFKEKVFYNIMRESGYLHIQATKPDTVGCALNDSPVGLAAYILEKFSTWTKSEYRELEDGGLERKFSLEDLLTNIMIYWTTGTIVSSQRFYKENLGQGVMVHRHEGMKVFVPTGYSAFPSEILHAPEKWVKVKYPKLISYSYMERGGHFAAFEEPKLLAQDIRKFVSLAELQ

epoxide hydrolase (EH) [2] = biological target: T2, epoxide hydrolase (EH) (Rattus norvegicus, UniProt P07687); assay: EO elimination in rat liver microsomes; type: in vitro ADME, Fischer 344 rats; conditions: native pooled rat liver microsomes vs heat-inactivated, 5 mg protein/ml
T2 sequence (P07687 1-455): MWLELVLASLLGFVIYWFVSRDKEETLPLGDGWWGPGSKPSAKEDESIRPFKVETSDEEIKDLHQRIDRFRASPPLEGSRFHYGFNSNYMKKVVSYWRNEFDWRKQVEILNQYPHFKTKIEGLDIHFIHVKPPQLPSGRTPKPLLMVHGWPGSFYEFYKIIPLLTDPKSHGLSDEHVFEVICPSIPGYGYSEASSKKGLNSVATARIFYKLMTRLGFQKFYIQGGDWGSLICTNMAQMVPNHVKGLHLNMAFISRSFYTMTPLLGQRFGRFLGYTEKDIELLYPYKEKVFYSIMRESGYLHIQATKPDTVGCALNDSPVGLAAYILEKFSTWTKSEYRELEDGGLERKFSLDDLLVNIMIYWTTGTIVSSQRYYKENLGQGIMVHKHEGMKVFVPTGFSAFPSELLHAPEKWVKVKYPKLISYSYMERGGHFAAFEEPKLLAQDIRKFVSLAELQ

epoxide hydrolase (EH) [3] = biological target: T1, epoxide hydrolase (EH); assay: EO elimination in mouse lung microsomes; type: in vitro ADME, B6C3F1 mice; conditions: native pooled mouse lung microsomes vs heat-inactivated, 5 mg protein/ml
epoxide hydrolase (EH) [4] = biological target: T2, epoxide hydrolase (EH); assay: EO elimination in rat lung microsomes; type: in vitro ADME, Fischer 344 rats; conditions: native pooled rat lung microsomes vs heat-inactivated, 5 mg protein/ml
CYP450 = assay: EO incubation in pooled rat liver microsomes with NADPH-regenerating system; type: in vitro ADME, Fischer 344 rats; conditions: rat liver microsomal incubation with NADPH-regenerating system
[5] = tested on: glutathione S-transferase (GST); assay: GST-mediated EO elimination in mouse liver cytosol; type: in vitro ADME, B6C3F1 mice; conditions: mouse pooled liver cytosol; taking a Km of 9 mmol/l
[6] = tested on: glutathione S-transferase (GST); assay: GST-mediated EO elimination in rat liver cytosol; type: in vitro ADME, Fischer 344 rats; conditions: rat pooled liver cytosol; taking a Km of 9 mmol/l
[7] = tested on: glutathione S-transferase (GST); assay: GST-mediated EO elimination in human liver cytosol; type: in vitro ADME; conditions: human pooled liver cytosol; taking a Km of 9 mmol/l
[8] = tested on: glutathione S-transferase (GST); assay: GST-mediated EO elimination in mouse lung cytosol; type: in vitro ADME, B6C3F1 mice; conditions: taking a Km of 9 mmol/l
[9] = tested on: glutathione S-transferase (GST); assay: GST-mediated EO elimination in rat lung cytosol; type: in vitro ADME, Fischer 344 rats; conditions: taking a Km of 9 mmol/l
[10] = Nonenzymatic conjugation with GSH; type: physicochemical; conditions: GSH 15 mmol/l, 37°C, pH 7.4
Spontaneous = type: physicochemical; conditions: MgCl2 containing potassium phosphate buffer pH 7.4, 37°C
[11] = calculated from the data of ref Brown et al. (1996); cited from earlier work
GSH levels in the livers = conditions: Fischer rats exposed for 4 h to 1200 ppm EO; ref McKelvey and Zemaitis (1986); cited from earlier work
[12] = rat; ref Dunkelberg, 1982; Garman et al., 1985; Snellings et al., 1984; cited from earlier work
[13] = mouse; ref Dunkelberg, 1981; National Toxicology Program, 1987; cited from earlier work
[14] = humans; ref IARC (1994b); cited from earlier work
epoxide hydrolase (EH) [15] = biological target: T3, epoxide hydrolase (EH) (Homo sapiens, UniProt P07099); assay: EO elimination in human liver microsomes; conditions: pooled native human liver microsomes, best fit (Berkeley Madonna)
T3 sequence (P07099 1-455): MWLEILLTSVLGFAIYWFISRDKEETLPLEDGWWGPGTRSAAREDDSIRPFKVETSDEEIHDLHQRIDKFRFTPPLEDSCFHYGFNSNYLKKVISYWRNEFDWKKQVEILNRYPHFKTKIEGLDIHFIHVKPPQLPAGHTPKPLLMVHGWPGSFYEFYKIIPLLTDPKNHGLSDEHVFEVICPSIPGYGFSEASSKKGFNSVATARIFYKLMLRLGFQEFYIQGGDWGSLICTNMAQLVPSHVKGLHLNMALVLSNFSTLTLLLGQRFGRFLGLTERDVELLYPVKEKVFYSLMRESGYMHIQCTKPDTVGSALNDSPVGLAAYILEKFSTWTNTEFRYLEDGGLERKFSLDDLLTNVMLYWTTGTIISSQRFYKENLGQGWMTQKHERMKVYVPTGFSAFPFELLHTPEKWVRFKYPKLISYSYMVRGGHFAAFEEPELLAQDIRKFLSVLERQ

Which results are given for `C1CO1` [EO, ethylene oxide]?
EH-catalyzed EO elimination (epoxide hydrolase (EH) [1]): not detectable; also recorded: no EH-catalyzed EO elimination was found; EH-catalyzed EO elimination (epoxide hydrolase (EH) [2]): not detectable; also recorded: no EH-catalyzed EO elimination was found; EH-catalyzed EO elimination (epoxide hydrolase (EH) [3]): no EH-catalyzed EO elimination was found; EH-catalyzed EO elimination (epoxide hydrolase (EH) [4]): no EH-catalyzed EO elimination was found; CYP-mediated EO elimination (CYP450): no CYP-mediated EO elimination was detected; Vmax of GST-mediated GSH conjugation with EO [5]: 251 nmol/min/mg protein; Vmax of GST-mediated GSH conjugation with EO [6]: 47.7 nmol/min/mg protein; Vmax of GST-mediated GSH conjugation with EO [7]: 10.3 nmol/min/mg protein; Vmax of GST-mediated GSH conjugation with EO [8]: 56.9 nmol/min/mg protein; Vmax of GST-mediated GSH conjugation with EO [9]: 16.0 nmol/min/mg protein; mean half-life of nonenzymatic conjugation with GSH [10]: 3.7 h; mean half-life of spontaneous hydrolysis (Spontaneous): 12.4 h; rate constant of the spontaneous hydrolysis (Spontaneous; mean ± SE, n = 36): 0.00093 ± 7e-05 min⁻¹; rate constant of the nonenzymatic elimination [11]: 0.001 min⁻¹; GSH levels in the livers (GSH levels in the livers): less than 20 % of the control value; carcinogenicity [12]: carcinogenic; carcinogenicity [13]: carcinogenic; IARC evaluation [14]: carcinogenic to humans; Vmax of EO elimination (epoxide hydrolase (EH) [15]): 14.35 nmol/min/mg protein
